Activity calls are given as the source filed them. Cut-off read from the data, not from the text of the source, for most assays here: actives have a measured EC50 and inactives only a lower limit.
Tests used:
[1] = HEp-2 cell cytotoxicity, dose response, cytotoxicity control for RSV inhibitor project, HTS (AID 2410); assay type: functional; conditions: human respiratory syncytial virus
Cytochrome P450 2C9 = Cytochrome P450 2C9 (Homo sapiens, UniProt P11712)
[2] = biological target: T1, Heat shock factor protein 1 (Mus musculus, UniProt P38532); assay: inhibition of MG132-induced HSE-luciferase signal, confirmation, cell-based, NIH3T3, luminescence, dose retest (AID 2382); assay type: functional;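 note: NIH3T3 fibroblasts with HSF1-driven luciferase reporter stressed by proteasome inhibitor MG132; luminescence from HSF1-driven luciferase expression after 8 hours of MG132 stress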
T1 sequence (P38532 whole entry): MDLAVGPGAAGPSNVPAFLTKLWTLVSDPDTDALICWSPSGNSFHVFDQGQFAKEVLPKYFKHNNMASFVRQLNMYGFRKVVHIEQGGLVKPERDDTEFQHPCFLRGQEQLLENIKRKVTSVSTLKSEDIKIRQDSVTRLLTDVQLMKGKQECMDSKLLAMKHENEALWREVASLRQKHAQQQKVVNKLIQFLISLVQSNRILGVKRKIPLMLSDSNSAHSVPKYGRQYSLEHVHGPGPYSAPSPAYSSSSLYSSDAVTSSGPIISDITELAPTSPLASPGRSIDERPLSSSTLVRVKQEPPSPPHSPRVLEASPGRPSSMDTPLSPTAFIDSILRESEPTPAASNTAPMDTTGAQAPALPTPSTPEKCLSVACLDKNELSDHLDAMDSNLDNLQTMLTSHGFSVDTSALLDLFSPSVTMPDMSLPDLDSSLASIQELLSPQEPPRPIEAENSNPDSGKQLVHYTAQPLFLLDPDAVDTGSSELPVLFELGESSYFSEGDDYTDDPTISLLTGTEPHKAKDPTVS

[3] = inhibitors of intracellular T. cruzi replication, confirmation, NIH3T3 host cells, beta-gal luminescence (AID 2044); assay type: functional, cell-based;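 note: intracellular parasites grown in NIH/3T3 mouse fibroblasts as host cells; luminescent beta-galactosidase reporter signal from transgenic T. cruzi replicating inside host cells; inhibitors lower the luminescence signal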
[4] = cytotoxicity toward NIH3T3 fibroblasts, dose response, counter-screen, cell-based, ATP luminescence, mouse fibroblasts (AID 2010); assay type: functional;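 note: cells exposed to compound for about 90 hours before reading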
Cytochrome P450 2D6 = Cytochrome P450 2D6 (Homo sapiens, UniProt P10635);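 note: CYP2D6 member of a cytochrome P450 panel assay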
[5] = test system: Streptococcus sp. 'group A'; assay: growth inhibition of control SK(-) GAS strain, dose response, counter-screen for streptokinase expression inhibitor project, luminescence, kanamycin, BacTiterGlo, confirmation (AID 1900); assay type: functional, organism-based
Streptococcus = assay: Group A Streptococcus viability loss, dose response, counter-screen for streptokinase expression inhibitor project, luminescence, BacTiterGlo (AID 1915); assay type: functional, organism-based;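 note: potency for reduction of bacterial viability or growth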

Chain of Cytochrome P450 2C9 (P11712 whole entry): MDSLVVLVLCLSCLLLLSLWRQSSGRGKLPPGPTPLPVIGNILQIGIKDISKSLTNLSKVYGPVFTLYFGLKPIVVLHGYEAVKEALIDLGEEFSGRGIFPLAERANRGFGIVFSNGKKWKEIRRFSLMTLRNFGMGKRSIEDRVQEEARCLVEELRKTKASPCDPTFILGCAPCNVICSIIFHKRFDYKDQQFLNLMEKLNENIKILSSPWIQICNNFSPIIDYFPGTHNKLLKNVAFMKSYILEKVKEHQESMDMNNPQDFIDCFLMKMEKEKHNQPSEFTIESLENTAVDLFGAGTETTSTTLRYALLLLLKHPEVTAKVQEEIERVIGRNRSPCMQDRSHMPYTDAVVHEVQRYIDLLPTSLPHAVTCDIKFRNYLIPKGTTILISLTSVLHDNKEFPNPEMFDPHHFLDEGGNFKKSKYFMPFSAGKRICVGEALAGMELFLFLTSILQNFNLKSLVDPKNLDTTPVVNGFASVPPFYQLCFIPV
Chain of Cytochrome P450 2D6 (P10635 whole entry): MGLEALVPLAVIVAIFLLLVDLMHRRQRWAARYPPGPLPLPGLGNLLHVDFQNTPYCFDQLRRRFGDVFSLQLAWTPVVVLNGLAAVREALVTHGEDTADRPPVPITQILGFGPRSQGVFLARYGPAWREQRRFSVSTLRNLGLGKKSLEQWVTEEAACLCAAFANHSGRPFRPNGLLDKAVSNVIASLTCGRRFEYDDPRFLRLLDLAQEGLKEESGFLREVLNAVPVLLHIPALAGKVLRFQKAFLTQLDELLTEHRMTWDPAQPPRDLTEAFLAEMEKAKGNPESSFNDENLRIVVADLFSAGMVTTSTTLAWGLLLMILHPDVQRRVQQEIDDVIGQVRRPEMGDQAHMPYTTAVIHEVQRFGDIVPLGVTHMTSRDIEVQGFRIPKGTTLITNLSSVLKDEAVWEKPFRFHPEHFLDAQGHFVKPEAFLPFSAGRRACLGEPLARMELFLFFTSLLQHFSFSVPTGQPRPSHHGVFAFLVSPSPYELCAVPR

CCOc1cc(-n2ncc(C#N)c2N)nc(SC)n1
CC50 [1]: 17.1 µM (active)

CN1CCN(c2ccc([N+](=O)[O-])c(N/N=C3\CN4CCC3CC4)c2)CC1
AC50 (Cytochrome P450 2C9): 0.01 µM (inconclusive)

FC(F)(F)c1ccccc1-c1nc(Nc2ccncc2)c2ccccc2n1
AC50 (Cytochrome P450 2C9): 0.794 µM (inconclusive)

COc1cccc(C(=O)Nc2cccc(-c3ccccc3)c2)c1
CC50 [1]: 29.6 µM (active)

C[n+]1c(/C=C/c2ccc3c(c2)OCO3)ccc2ccccc21
EC50 [2]: 0.181 µM (active)

CC(NC(=O)c1ccccc1Br)c1ccc2c(c1)CCCC2 (stereo unspecified)
CC50 [1]: 21.5 µM (active)

CCOC(=O)C1=C(C)N(CCC(=O)O)C(=O)NC1c1ccccc1Cl (stereo unspecified)
EC50 [2]: > 195 µM (not active)

CS(=O)(=O)Nc1cccc(-c2ccc3ncnc(NCc4cccs4)c3c2)c1
AC50 (Cytochrome P450 2C9): 0.501 µM (inconclusive)

CCN(CC)CCCN/C(C)=C1\C(=O)NC(=O)N(C2CCCCC2)C1=O
EC50 [3]: 0.35 µM (active)
EC50 [4]: > 60 µM (not active)

Cc1ccc(/C(C#N)=C\c2cn(C)c3ccccc23)cc1
CC50 [1]: 33.5 µM (active)

CN(C)C(=O)N1CCC(C(=O)NCc2ccc(F)cc2Cl)CC1
EC50 [2]: > 195 µM (not active)

CCN(CC)CCn1c(=N)n(CCOc2ccccc2)c2ccccc21
EC50 [3]: 1.43 µM (active)

COc1ccc(Cn2c(SC)nc3ccccc32)cc1[N+](=O)[O-]
EC50 [2]: > 195 µM (not active)

Clc1cccc(/C=N\C=N/c2cccc(Cl)c2)c1
AC50 (Cytochrome P450 2D6): 25.1 µM (inconclusive)

O=C(COc1ccccc1)NC1C(=O)N2C(C(=O)O)=C(Cl)CSC12 (stereo unspecified)
EC50 [5]: 0.301 µM (active)
EC50 (Streptococcus): 0.372 µM (active)

Clc1ccc(-n2cccc2CN2CCc3c([nH]c4ccccc34)C2c2ccccn2)nc1 (stereo unspecified)
CC50 [1]: 25.1 µM (active)

Cn1nc(C(F)(F)F)c(C(=O)Nc2ccc(F)cc2F)c1Sc1ccc(C(F)(F)F)cc1
AC50 (Cytochrome P450 2D6): 14.1 µM (inconclusive)

Cn1c(=O)c(-c2cccc(Cl)c2)nc2cncnc21
AC50 (Cytochrome P450 2C9): 39.8 µM (inconclusive)

Cn1nc([N+](=O)[O-])nc1Oc1ccccc1
EC50 [3]: 0.459 µM (active)
EC50 [4]: > 60 µM (not active)

CCC(C)c1ccccc1NC(=O)c1cc2cccc([N+](=O)[O-])c2[nH]1 (stereo unspecified)
EC50 [3]: 1.35 µM (active)
EC50 [4]: > 60 µM (not active)

CN1CCc2c(cc(O)c(O)c2Cl)[C@H](c2cccc(Cl)c2)C1
AC50 (Cytochrome P450 2D6): 31.6 µM (inconclusive)

CC(C)OCCCn1c(NN)nc2ccccc2c1=O
EC50 [2]: > 195 µM (not active)

O=C(NCc1ccccc1Cl)C(=O)c1c[nH]c2ccccc12
CC50 [1]: > 6.25 µM (active)

COc1ccc(Cn2nnnc2C(c2cc3cccc(C)c3nc2O)N2CCN(C)CC2)cc1 (stereo unspecified)
EC50 [2]: > 195 µM (not active)

CS(=O)(=O)N1CCc2cc(-c3csc(NC(=O)C(c4ccccc4)c4ccccc4)n3)ccc21
EC50 [3]: 1.45 µM (active)
EC50 [4]: > 60 µM (not active)

COC1(C[S+]([O-])c2ccccc2)CCN(CCc2c[nH]c3ccc(F)cc23)CC1 (stereo unspecified)
AC50 (Cytochrome P450 2D6): 15.8 µM (inconclusive)
AC50 (Cytochrome P450 2C9): 25.1 µM (inconclusive)

O=c1c(-c2ccc(F)cc2)nc2cnc(N3CCNCC3)nc2n1Cc1cccs1
AC50 (Cytochrome P450 2D6): 20 µM (inconclusive)

O=C1NC(=O)C2(CCc3ccccc32)N1 (stereo unspecified)
EC50 [2]: > 195 µM (not active)

Cc1occc1-c1nc(-c2ccncc2)no1
CC50 [1]: 39.6 µM (active)

O=C(C(NS(=O)(=O)c1cccs1)c1ccccc1)N1CCN(c2ccccc2)CC1 (stereo unspecified)
AC50 (Cytochrome P450 2D6): 25.1 µM (inconclusive)

COc1ccc(CC(=O)Nc2cc(C)on2)cc1
EC50 [2]: > 195 µM (not active)

O=C(c1ccncc1)N1CCC2(CCCN(c3ccc(-c4ccccc4)cc3)C2)CC1
AC50 (Cytochrome P450 2D6): 12.6 µM (inconclusive)

Cn1nc(-c2ccc(Cl)cc2)cc1NC(=O)Nc1ccccc1
CC50 [1]: > 50 µM (active)

Cn1c(/C=C/c2ccccc2)nc2ccccc2c1=O
EC50 [2]: > 195 µM (not active)

Cc1cccc(CNc2ccnc(-c3ccoc3)n2)c1
AC50 (Cytochrome P450 2D6): 31.6 µM (inconclusive)

CN(C)Cc1cc(O)c(O)c(CN(C)C)c1
AC50 (Cytochrome P450 2C9): 7.94 µM (inconclusive)

CNCCCCOc1ccc(C(C)(C)C)cc1Cl
EC50 [3]: 0.834 µM (active)
EC50 [4]: 9.37 µM (active)

COc1ccc(Nc2nc(-c3cccs3)nc3ccccc23)cc1S(=O)(=O)N1CCOCC1
CC50 [1]: 17.1 µM (active)
EC50 [3]: 1.25 µM (active)
EC50 [4]: 10.1 µM (active)

O=C(NC(c1ccccc1)c1cc(Cl)c2cccnc2c1O)c1cccnc1 (stereo unspecified)
EC50 [5]: 0.64 µM (active)
EC50 [3]: 0.488 µM (active)
EC50 [4]: > 60 µM (not active)
EC50 (Streptococcus): 2.15 µM (active)

CC(=O)N1CCC[C@@]2(CCN(c3ncccn3)C2)C1
AC50 (Cytochrome P450 2D6): 15.8 µM (inconclusive)

C=CCSc1nc(N)cc(O)n1
EC50 [2]: > 195 µM (not active)

CCN1c2nc3c(C)cccn3c(=O)c2CC2(C(=O)N(C)C(=O)N(C)C2=O)C1C (stereo unspecified)
EC50 [2]: > 195 µM (not active)

COc1ccc(CNC(=O)C2CC(c3ccc(OC)cc3)=NO2)cc1 (stereo unspecified)
AC50 (Cytochrome P450 2D6): 8.91 µM (inconclusive)

O=C(c1ccccc1Nc1ccc(SC(F)F)cc1)N1CCCCC1
AC50 (Cytochrome P450 2D6): 1.12 µM (inconclusive)
AC50 (Cytochrome P450 2C9): 2.82 µM (inconclusive)

Cc1ccc(-n2c(S)nnc2CNc2ccc(C)c(Cl)c2)cc1
CC50 [1]: 27.7 µM (active)

CC1CCCN(S(=O)(=O)c2ccc(Br)s2)C1 (stereo unspecified)
EC50 [2]: > 195 µM (not active)

COC(=O)C(O)(c1ccc(NC(=S)NC(=O)c2ccc(Cl)cc2Cl)cc1)C(F)(F)F (stereo unspecified)
CC50 [1]: > 50 µM (active)

O=[N+]([O-])c1ccc(N2CCN(Cc3ccc4c(c3)OCO4)CC2)nc1
EC50 [2]: > 195 µM (not active)

O=c1ccc2ccc(OCCOc3cccc(Cl)c3)cc2o1
CC50 [1]: 42.4 µM (active)

N#Cc1cccc(C#N)c1Oc1ccc(S(=O)(=O)Nc2ccc(Cl)cc2)cc1
EC50 [2]: > 195 µM (not active)

CCN(CC)CCNc1cc(C)c(C#N)c2nc3ccccc3n12
EC50 [3]: 1.09 µM (active)
EC50 [4]: > 60 µM (not active)

OC[C@@H]1O[C@@H](n2cnc3c(N[C@H]4CCC[C@@H]4O)ncnc32)[C@H](O)[C@H]1O
AC50 (Cytochrome P450 2D6): 15.8 µM (inconclusive)

COc1ccc(/C=N/c2c(-c3ccc(OC)cc3)nc3n2CCS3)cc1
EC50 [2]: > 195 µM (not active)

O=C(Nc1ccc(Cl)cn1)c1ccc2c(Cl)c3c(nc2c1)CCC3
EC50 [2]: 22.5 µM (active)

COc1cc(C(C(=O)NCc2ccccc2)N(Cc2ccco2)C(=O)c2cnccn2)cc(OC)c1OC (stereo unspecified)
EC50 [2]: > 195 µM (not active)

Cn1c(=O)c2c(nc(Oc3cccc(O)c3)n2C)n(C)c1=O
EC50 [2]: > 195 µM (not active)

Cc1cc(C(=O)NNS(=O)(=O)c2ccc(F)cc2)nn1C(C)(C)C
EC50 [2]: > 195 µM (not active)

O=S(=O)(NCC(c1cccnc1)N1CCN(Cc2ccccc2)CC1)c1ccccc1 (stereo unspecified)
EC50 [3]: 0.634 µM (active)
EC50 [4]: > 60 µM (not active)

COc1ccc(-c2cc(-c3ccccc3)nc(Cl)n2)cc1OC
CC50 [1]: 19.1 µM (active)

CCc1cccc(Nc2c([N+](=O)[O-])cc(C(=O)N3CC(=O)Nc4ccccc43)cc2[N+](=O)[O-])c1
EC50 [3]: 1.1 µM (active)
EC50 [4]: > 30 µM (not active)

CCC(C(=O)NC(C)(C)C)N(Cc1ccc(F)cc1)C(=O)c1snc(C(N)=O)c1N (stereo unspecified)
EC50 [2]: > 195 µM (not active)

Cc1nn(Cc2cccc(C(=O)Nc3ccn(Cc4c(F)c(F)cc(F)c4F)n3)c2)c(C)c1[N+](=O)[O-]
CC50 [1]: 23.8 µM (active)
EC50 [3]: 0.882 µM (active)
EC50 [4]: > 60 µM (not active)

COc1ccc(Cn2nnc3c(O)nc(C4CCN(S(=O)(=O)c5ccc(C)cc5)CC4)nc32)cc1
CC50 [1]: 15.7 µM (active)

CC(C)OC(=O)C1=C2SCC(=O)N2C(N)=C(C#N)C1
AC50 (Cytochrome P450 2D6): 25.1 µM (inconclusive)

COCCNC(=O)CCc1nnc(C2(c3ccc(Cl)cc3)CCC2)o1
EC50 [2]: > 195 µM (not active)

COc1cccc(Cn2c(=O)c(-c3cc(F)cc(F)c3)nc3cnc(OC)nc32)c1
AC50 (Cytochrome P450 2C9): 3.16 µM (inconclusive)

O=C(Oc1ccccc1)N1CCC[C@@]2(CCN(c3ccccn3)C2)C1
AC50 (Cytochrome P450 2C9): 39.8 µM (inconclusive)

CCCCCCCC(=O)NNC(=O)c1c(O)c2ccccc2n(CCC)c1=O
EC50 [5]: 2.67 µM (active)
EC50 (Streptococcus): 4.91 µM (active)

CCCS(=O)(=O)N1CCCC(C(=O)NCCN2CCOCC2)C1 (stereo unspecified)
AC50 (Cytochrome P450 2C9): 7.08 µM (inconclusive)

COC(=O)C(Cc1ccccc1)NC(=O)CNC(=O)c1sc2ccccc2c1Cl (stereo unspecified)
EC50 [2]: > 195 µM (not active)

O=C(O)CCn1cc(/C=C2\NC(=S)N(c3ccccc3)C2=O)c(-c2ccc(Br)cc2)n1
EC50 [2]: > 195 µM (not active)

C[C@H](NC[C@H](O)CP(=O)(O)Cc1ccccc1)c1ccc(Cl)c(Cl)c1
AC50 (Cytochrome P450 2C9): 15.8 µM (inconclusive)

From ChEMBL document CHEMBL1201862, “PubChem BioAssay data set” (2004)
